Reference: US5747447A, “Stable polypeptide composition” (COR Therapeutics, priority 1995, dated 1998)
Like-named read-outs stand apart in the source and are kept apart here. Where a SMILES comes first, the peptide text is derived from it. Bridges are numbered along the chain shown (N, C = ends). [ ]: non-standard residue; d: D form. hArg = N=C(N)NCCCC[C@H](N)C(=O)O; Mpa = O=C(O)CCS

Experiments:
M21 melanoma cells = assay: M21 melanoma cell adhesion to vitronectin-coated plates; type: cell-based
Method: M21 melanoma cells were labelled with ^35 S-methionine, and then added to vitronectin-coated plates in the presence of the indicated concentrations of purified snake venom peptides. Cell attachment was measured by solubilizing the cells remaining after an incubation and wash, as previously describe.

[1] = target: ADP-induced human platelet aggregation (Homo sapiens, UniProt P05106+P08514); assay: standard aggregation inhibition assay (ADP-induced human platelet aggregation); type: cell-based; conditions: for IC50: ADP-induced human platelet aggregation, read-out: Appr, IC50
Text: 2. Standard assays directly applied to platelet aggregation, such as those described by Gann, Z.-R., et al., J Biol Chem (1988) 263:19827-19832; Huang, T. F., et al., J Biol Chem (1987) 262:16157-16163; Biochemistry (1989) 28:661-666, cited above and incorporated herein by reference;

GP IIb-IIIa = target: T1, GP IIb-IIIa (Homo sapiens, UniProt P05106+P08514); type: binding; conditions: plate assays
T1 construct: GP IIb-IIIa, prepared in purified form; from tissue; own knowledge of the cited Fitzgerald et al. 1985 method
Method: In the assay, GP IIb-IIIa, prepared in purified form, for example as described by Fitzgerald, L. A., et al., Anal Biochem (1985) 151:169-177, incorporated herein by reference, is coated onto a solid support such as beads, test tubes, or microtiter plates. The coated support is then contacted with fibrinogen and with the test material and incubated for a sufficient time to permit maximal binding of fibrinogen to the immobilized GP IIb-IIIa. Fibrinogen is typically provided at a concentration of about 5-50 nM and the test material can, if desired, be added at a series of dilutions. Typical incubations are 2-4 hr at 35° C., the time and temperature being interdependent.
After incubation, the solution containing the fibrinogen and test material is removed and the level of binding of fibrinogen measured by quantitating bound fibrinogen to GP IIb-IIIa. Any suitable means of detection can be used, but it is convenient to employ labeled fibrinogen, for example using radioactive, fluorescent or biotinylated labels. Such methods are well known and need not be elaborated here.
Assessment of the results is aided by employing a control sample, usually identical to the test sample except that the test substance is absent. In this case, percent inhibition may be calculated using the basis, so that [formula] Other measures of inhibition effectiveness, such as IC50, can also be used.

[2] = 25 mM citrate buffer pH 5.25, about 1 mg/mL
Text: Test sample vials from each temperature condition were removed periodically and analyzed for stability by HPLC and visual inspection as described in Example 1.

T1 sequence (P08514 32-887 limits assumed): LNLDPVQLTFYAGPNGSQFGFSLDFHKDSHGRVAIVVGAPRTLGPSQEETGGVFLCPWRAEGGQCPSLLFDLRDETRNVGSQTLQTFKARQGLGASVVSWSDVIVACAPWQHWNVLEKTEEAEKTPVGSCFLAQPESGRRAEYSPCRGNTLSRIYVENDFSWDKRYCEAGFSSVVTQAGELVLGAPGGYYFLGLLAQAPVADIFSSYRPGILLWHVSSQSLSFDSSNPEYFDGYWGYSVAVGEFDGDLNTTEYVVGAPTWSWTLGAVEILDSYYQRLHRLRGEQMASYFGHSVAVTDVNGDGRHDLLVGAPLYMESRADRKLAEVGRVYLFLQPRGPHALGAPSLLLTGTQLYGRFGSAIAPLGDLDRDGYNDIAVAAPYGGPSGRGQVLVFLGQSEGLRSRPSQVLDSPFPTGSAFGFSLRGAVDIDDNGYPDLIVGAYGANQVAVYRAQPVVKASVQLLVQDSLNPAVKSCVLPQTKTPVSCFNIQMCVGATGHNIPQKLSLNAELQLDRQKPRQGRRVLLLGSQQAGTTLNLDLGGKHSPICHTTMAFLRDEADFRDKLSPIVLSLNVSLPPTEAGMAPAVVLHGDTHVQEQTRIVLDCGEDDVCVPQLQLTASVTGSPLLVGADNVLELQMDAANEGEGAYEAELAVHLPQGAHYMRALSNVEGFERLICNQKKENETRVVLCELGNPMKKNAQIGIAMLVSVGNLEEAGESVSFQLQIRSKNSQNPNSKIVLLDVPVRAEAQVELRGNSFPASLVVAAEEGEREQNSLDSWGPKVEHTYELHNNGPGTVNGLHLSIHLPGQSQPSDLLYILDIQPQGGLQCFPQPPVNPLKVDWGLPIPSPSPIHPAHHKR
T1 sequence (P08514 891-1039 limits assumed): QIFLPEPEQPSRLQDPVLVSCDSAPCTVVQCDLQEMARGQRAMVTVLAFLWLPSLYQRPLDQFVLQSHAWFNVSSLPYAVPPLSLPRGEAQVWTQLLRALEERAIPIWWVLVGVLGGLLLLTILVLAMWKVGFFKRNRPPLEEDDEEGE
T1 sequence (P05106 27-788): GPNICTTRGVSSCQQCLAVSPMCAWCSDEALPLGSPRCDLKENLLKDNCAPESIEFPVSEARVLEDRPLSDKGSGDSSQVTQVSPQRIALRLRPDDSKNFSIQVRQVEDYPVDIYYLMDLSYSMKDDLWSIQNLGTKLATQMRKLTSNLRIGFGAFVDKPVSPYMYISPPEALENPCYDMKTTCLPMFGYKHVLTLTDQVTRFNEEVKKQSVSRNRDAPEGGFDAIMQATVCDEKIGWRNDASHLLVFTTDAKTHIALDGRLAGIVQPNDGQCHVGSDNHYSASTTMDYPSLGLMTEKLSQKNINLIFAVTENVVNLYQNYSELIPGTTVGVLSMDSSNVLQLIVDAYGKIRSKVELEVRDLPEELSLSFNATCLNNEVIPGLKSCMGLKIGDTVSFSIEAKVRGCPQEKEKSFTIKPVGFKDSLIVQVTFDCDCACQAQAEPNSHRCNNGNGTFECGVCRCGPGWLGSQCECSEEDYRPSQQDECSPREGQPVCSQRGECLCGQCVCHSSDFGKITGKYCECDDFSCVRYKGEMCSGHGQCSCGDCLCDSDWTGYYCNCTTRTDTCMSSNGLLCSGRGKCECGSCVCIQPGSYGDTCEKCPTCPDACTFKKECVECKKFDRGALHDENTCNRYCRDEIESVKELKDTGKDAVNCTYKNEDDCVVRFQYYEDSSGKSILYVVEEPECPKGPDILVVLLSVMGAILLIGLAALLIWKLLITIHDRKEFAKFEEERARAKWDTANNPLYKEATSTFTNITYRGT
Sequence of ADP-induced human platelet aggregation (P08514 32-1039): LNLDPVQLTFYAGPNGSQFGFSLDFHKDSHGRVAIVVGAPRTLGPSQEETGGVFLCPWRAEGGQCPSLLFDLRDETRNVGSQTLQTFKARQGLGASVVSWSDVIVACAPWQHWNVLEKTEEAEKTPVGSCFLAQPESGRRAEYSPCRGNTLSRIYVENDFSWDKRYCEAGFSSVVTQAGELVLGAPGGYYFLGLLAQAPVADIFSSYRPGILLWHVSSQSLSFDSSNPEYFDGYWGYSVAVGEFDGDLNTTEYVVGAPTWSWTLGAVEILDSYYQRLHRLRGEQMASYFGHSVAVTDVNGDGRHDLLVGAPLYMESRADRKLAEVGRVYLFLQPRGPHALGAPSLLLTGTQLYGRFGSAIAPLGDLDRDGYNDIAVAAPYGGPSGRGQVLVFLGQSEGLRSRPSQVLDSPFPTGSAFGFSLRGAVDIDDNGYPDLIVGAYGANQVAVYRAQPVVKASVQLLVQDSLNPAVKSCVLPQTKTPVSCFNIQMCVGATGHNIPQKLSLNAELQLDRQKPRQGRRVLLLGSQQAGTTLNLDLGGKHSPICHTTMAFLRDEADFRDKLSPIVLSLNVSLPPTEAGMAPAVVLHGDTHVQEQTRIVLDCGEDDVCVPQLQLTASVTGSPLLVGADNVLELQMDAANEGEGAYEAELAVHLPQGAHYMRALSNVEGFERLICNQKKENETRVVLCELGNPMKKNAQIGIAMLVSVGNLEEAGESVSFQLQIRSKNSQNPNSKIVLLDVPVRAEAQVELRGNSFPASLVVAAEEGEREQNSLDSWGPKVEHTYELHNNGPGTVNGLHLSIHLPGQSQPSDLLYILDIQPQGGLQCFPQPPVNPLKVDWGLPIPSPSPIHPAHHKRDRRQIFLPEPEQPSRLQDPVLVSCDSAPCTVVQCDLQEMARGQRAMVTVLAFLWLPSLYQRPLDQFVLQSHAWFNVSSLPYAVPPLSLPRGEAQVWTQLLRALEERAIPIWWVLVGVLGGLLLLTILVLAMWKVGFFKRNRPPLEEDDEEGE
Sequence of ADP-induced human platelet aggregation (P05106 27-788): as the sequence (P05106 27-788) above

## C[C@H](NC(=O)[C@@H]1CSSC[C@H](NC(=O)CN)C(=O)NCC(=O)N[C@@H](CCCCN)C(=O)NCC(=O)N[C@@H](CC(=O)O)C(=O)N[C@@H](Cc2c[nH]c3ccccc23)C(=O)N2CCC[C@H]2C(=O)N1)C(N)=O [Analog #3, G-C-G-K-G-D-W-P-C-A-NH2]
M21 melanoma cells
  M21 cell attachment to vitronectin (in words): ineffective up to 60 uM

## C[C@H](NC(=O)[C@@H]1CSSC[C@H](NC(=O)CN)C(=O)N[C@@H](CCCCN)C(=O)NCC(=O)N[C@@H](CC(=O)O)C(=O)N[C@@H](Cc2c[nH]c3ccccc23)C(=O)N2CCC[C@H]2C(=O)N1)C(N)=O [Analog #4, G-C-K-G-D-W-P-C-A-NH2] (H-GCKGDWPCA-NH2; disulfide 2-8)
[1]
  IC50: 5 µM
GP IIb-IIIa
  differential fibrinogen/GP IIb-IIIa versus vitronectin/vitronectin receptor (in words): highest differential

## NCCCC[C@@H]1NC(=O)CNC(=O)[C@@H](N)CSSC[C@@H](C(N)=O)NC(=O)[C@@H]2CCCN2C(=O)[C@H](Cc2c[nH]c3ccccc23)NC(=O)[C@H](CC(=O)O)NC(=O)CNC1=O [Analog #5, C-G-K-G-D-W-P-C-NH2] (H-CGKGDWPC-NH2; disulfide 1-8)
[1]
  IC50: 5 µM
GP IIb-IIIa
  differential fibrinogen/GP IIb-IIIa versus vitronectin/vitronectin receptor (in words): quite specific

## C[C@H](NC(=O)[C@@H]1CSSC[C@H](NC(=O)CN)C(=O)N[C@@H](CCCCN)C(=O)NCC(=O)N[C@@H](CC(=O)O)C(=O)N[C@@H](Cc2c[nH]c3ccccc23)C(=O)N1)C(N)=O [Analog #7, G-C-K-G-D-W-C-A-NH2] (H-GCKGDWCA-NH2; disulfide 2-7 (inferred); N-terminus assumed)
GP IIb-IIIa
  differential fibrinogen/GP IIb-IIIa versus vitronectin/vitronectin receptor (in words): quite specific

## C[C@@H]1NC(=O)CCSSC[C@@H](C(N)=O)NC(=O)[C@@H]2CCCN2C(=O)[C@H](Cc2c[nH]c3ccccc23)NC(=O)[C@H](CC(=O)O)NC(=O)CNC(=O)[C@H](CCCCNC(=N)N)NC1=O [PAI 82, Mpr-A-Har-G-D-W-P-C-NH2] ([Mpa]A[hArg]GDWPC-NH2; disulfide 1-8)
[1]; PAI activity, Example 15, read-out: Appr.IC20
  IC20: 0.12 µM
[2]; 5° C., Time (Days) 0
  stability by HPLC as in Example 1: 99.6
[2]; 5° C., Time (Days) 29
  stability by HPLC as in Example 1: 98.1
[2]; 5° C., Time (Days) 60
  stability by HPLC as in Example 1: 98.3
[2]; 5° C., Time (Days) 90
  stability by HPLC as in Example 1: 97.3
[2]; 30° C., Time (Days) 29
  stability by HPLC as in Example 1: 97.3
[2]; 30° C., Time (Days) 60
  stability by HPLC as in Example 1: 97.3
[2]; 30° C., Time (Days) 90
  stability by HPLC as in Example 1: 96.5
[2]; 45° C., Time (Days) 29
  stability by HPLC as in Example 1: 95.4
[2]; 45° C., Time (Days) 60
  stability by HPLC as in Example 1: 92.6
[2]; 45° C., Time (Days) 90
  stability by HPLC as in Example 1: 90.6

## C[C@H](NC(=O)[C@@H]1CSSC[C@H](NC(=O)CN)C(=O)NCC(=O)N[C@@H](CCCNC(=N)N)C(=O)NCC(=O)N[C@@H](CC(=O)O)C(=O)N[C@@H](Cc2c[nH]c3ccccc23)C(=O)N2CCC[C@H]2C(=O)N1)C(N)=O [reference compound] (H-GCGRGDWPCA-NH2; disulfide 2-9)
M21 melanoma cells
  M21 cell attachment to vitronectin (in words): potent inhibitors of cell attachment
